Source: patent US20260234112A1, “COMPOUNDS, COMPOSITIONS, AND METHODS OF USE THEREOF” (Type6 Therapeutics, Inc., priority 2023, published 2026)

Biological target: T1, Cdk2(2-298) (Homo sapiens, UniProt P24941)
T1 construct: Biotinylated N-terminal avi-tagged Cdk2(2-298) or Cdk1(1-297) was immobilized
Assay: Surface Plasmon Resonance (SPR) compound interaction, Biacore 8K
Format: binding
Conditions: single-cycle kinetics (SCK, "S"), dissociation 1800 sec, read-out: Activity rating (KD)
Procedure: Compound interaction was profiled using a Biacore 8K instrument (Cytiva). Biotinylated N-terminal avi-tagged Cdk2(2-298) or Cdk1(1-297) was immobilized on a series S sensor Chip SA at a capture level between 2500 RU and 3000 RU (Cdk2) or 7000 RU (Cdk1) in buffer (25 mM HEPES, 150 mM NaCl, 0.05% Tween20, pH 7.5). A compound dilution plate (8 concentrations, 3-fold dilution) in DMSO was prepared (100× assay concentration). From this plate, compound DMSO stock solution was transferred into buffer, yielding a final DMSO concentration of 1% in assay. The remaining buffer was supplemented with 1% DMSO. Compounds were injected in a series of increasing concentrations in multi-cycle kinetics (MCK, “M”) or single-cycle kinetics (SCK, “S”) mode at a flow rate of 30 μl/min for 120 sec and dissociation was profiled for 180 sec (MCK) or 1800 sec (SCK). Data were analysed using Biacore Insight Evaluation Software (Cytiva).

Kd	Structure (SMILES)
11 to 100 nM	N[C@H]1CC[C@H](Nc2nccc(-c3ccccc3Oc3ccc(NS(=O)(=O)c4ccccc4)cc3F)n2)CC1 [Compound 1, N-[4-[2-[2-[(1r,4r)(4-Aminocyclohexyl)amino]pyrimidin-4-yl]phenoxy]-3-fluoro-phenyl] benzenesulfonamide]
1000 to 5000 nM	O=S(=O)(Nc1ccc(Oc2ccccc2-c2ccnc(N[C@H]3CCCNC3)n2)c(F)c1)c1ccccc1 [Compound 2, N-[3-Fluoro-4-[2-[2-[[(3S)-3-piperidyl]amino]pyrimidin-4-yl]phenoxy]phenyl] benzenesulfonamide]
11 to 100 nM	N[C@H]1CC[C@H](Nc2nccc(-c3ccccc3Oc3ccc(NS(=O)(=O)c4ccccc4Cl)cc3F)n2)CC1 [Compound 3, N-[4-[2-[2-[(1r,4r)(4-Aminocyclohexyl)amino]pyrimidin-4-yl]phenoxy]-3-fluorophenyl] 2-chlorobenzenesulfonamide]
100 to 1000 nM	N[C@H]1CC[C@H](Nc2nccc(-c3ccccc3Oc3ccc(NS(=O)(=O)c4cccc5ccccc45)cc3F)n2)CC1 [Compound 4, N-[4-[2-[2-[(1r,4r)(4-Aminocyclohexyl)amino]pyrimidin-4-yl]phenoxy]-3-fluorophenyl] naphthalene-1-sulfonamide]
≤ 10 nM	O=S(=O)(Nc1ccc(Oc2ccccc2-c2ccnc(N[C@H]3CCCNC3)n2)c(F)c1)c1ccccc1Cl [Compound 5, N-[3-Fluoro-4-[2-[2-[[(3S)-3-piperidyl]amino]pyrimidin-4-yl]phenoxy]phenyl] 2-chlorobenzenesulfonamide]
100 to 1000 nM	O=S(=O)(Nc1ccc(Oc2ccccc2-c2ccnc(N[C@H]3CCCNC3)n2)c(F)c1)c1cccc2ccccc12 [Compound 6, N-[3-Fluoro-4-[2-[2-[[(3S)-3-piperidyl]amino]pyrimidin-4-yl]phenoxy]phenyl] naphthalene-1-sulfonamide]
11 to 100 nM	Cc1ccc(Oc2ccc(NS(=O)(=O)c3ccccc3Cl)cc2F)c(-c2ccnc(N[C@H]3CC[C@H](N)CC3)n2)c1 [Compound 7, N-[4-[2-[2-[(1r,4r)(4-Aminocyclohexyl)amino]pyrimidin-4-yl]-4-methylphenoxy]-3-fluorophenyl] 2-chlorobenzenesulfonamide]
11 to 100 nM	N[C@H]1CC[C@H](Nc2nccc(-c3cc(C(F)(F)F)ccc3Oc3ccc(NS(=O)(=O)c4ccccc4Cl)cc3F)n2)CC1 [Compound 8, N-[4-[2-[2-[(1r,4r)(4-Aminocyclohexyl)amino]pyrimidin-4-yl]-4-(trifluoromethyl)phenoxy]-3-fluorophenyl] 2-chlorobenzenesulfonamide]
11 to 100 nM	Cc1ccc(-c2ccnc(N[C@H]3CC[C@H](N)CC3)n2)c(Oc2ccc(NS(=O)(=O)c3ccccc3Cl)cc2F)c1 [Compound 9, N-[4-[2-[2-[(1r,4r)(4-Aminocyclohexyl)amino]pyrimidin-4-yl]-5-methylphenoxy]-3-fluorophenyl] 2-chlorobenzenesulfonamide]
11 to 100 nM	N#Cc1ccc(Oc2ccc(NS(=O)(=O)c3ccccc3Cl)cc2F)c(-c2ccnc(N[C@H]3CC[C@H](N)CC3)n2)c1 [Compound 10, N-[4-[2-[2-[(1r,4r)(4-Aminocyclohexyl)amino]pyrimidin-4-yl]-4-cyanophenoxy]-3-fluorophenyl] 2-chlorobenzenesulfonamide]
11 to 100 nM	CC(C)(C)c1ccc(-c2ccnc(N[C@H]3CC[C@H](N)CC3)n2)c(Oc2ccc(NS(=O)(=O)c3ccccc3Cl)cc2F)c1 [Compound 11, N-[4-[2-[2-[(1r,4r)(4-Aminocyclohexyl)amino]pyrimidin-4-yl]-5-(1,1-dimethylethyl)phenoxy]-3-fluorophenyl] 2-chlorobenzenesulfonamide]
11 to 100 nM	N[C@H]1CC[C@H](Nc2nccc(-c3ccc(I)cc3Oc3ccc(NS(=O)(=O)c4ccccc4Cl)cc3F)n2)CC1 [Compound 16, N-[4-[2-[2-[(1r,4r)(4-Aminocyclohexyl)amino]pyrimidin-4-yl]-5-iodophenoxy]-3-fluorophenyl] 2-chlorobenzenesulfonamide]
11 to 100 nM	CCc1ccc(-c2ccnc(N[C@H]3CC[C@H](N)CC3)n2)c(Oc2ccc(NS(=O)(=O)c3ccccc3Cl)cc2F)c1 [Compound 17, N-[4-[2-[2-[(1r,4r)(4-Aminocyclohexyl)amino]pyrimidin-4-yl]-5-ethylphenoxy]-3-fluorophenyl] 2-chlorobenzenesulfonamide]
> 5000 nM	N[C@H]1CC[C@H](Nc2nccc(-c3ccc(-c4ccccc4)cc3Oc3ccc(NS(=O)(=O)c4ccccc4Cl)cc3F)n2)CC1 [Compound 18, N-[4-[2-[2-[(1r,4r)(4-Aminocyclohexyl)amino]pyrimidin-4-yl]-5-phenylphenoxy]-3-fluorophenyl] 2-chlorobenzenesulfonamide]
11 to 100 nM	N[C@H]1CC[C@H](Nc2nccc(-c3ccc(C4CC4)cc3Oc3ccc(NS(=O)(=O)c4ccccc4Cl)cc3F)n2)CC1 [Compound 19, N-[4-[2-[2-[(1r,4r)(4-Aminocyclohexyl)amino]pyrimidin-4-yl]-5-cyclopropylphenoxy]-3-fluorophenyl] 2-chlorobenzenesulfonamide]
11 to 100 nM	CC(C)c1ccc(-c2ccnc(N[C@H]3CC[C@H](N)CC3)n2)c(Oc2ccc(NS(=O)(=O)c3ccccc3Cl)cc2F)c1 [Compound 20, N-[4-[2-[2-[(1r,4r)(4-Aminocyclohexyl)amino]pyrimidin-4-yl]-5-(1-methylethyl)phenoxy]-3-fluorophenyl] 2-chlorobenzenesulfonamide]
11 to 100 nM	C=Cc1ccc(-c2ccnc(N[C@H]3CC[C@H](N)CC3)n2)c(Oc2ccc(NS(=O)(=O)c3ccccc3Cl)cc2F)c1 [Compound 21, N-[4-[2-[2-[(1r,4r)(4-Aminocyclohexyl)amino]pyrimidin-4-yl]-5-ethenylphenoxy]-3-fluorophenyl] 2-chlorobenzenesulfonamide]
11 to 100 nM	N[C@H]1CC[C@H](Nc2nccc(-c3ccc(C4CCCCC4)cc3Oc3ccc(NS(=O)(=O)c4ccccc4Cl)cc3F)n2)CC1 [Compound 22, N-[4-[2-[2-[(1r,4r)(4-Aminocyclohexyl)amino]pyrimidin-4-yl]-5-cyclohexylphenoxy]-3-fluorophenyl] 2-chlorobenzenesulfonamide]
≤ 10 nM	N[C@H]1CC[C@H](Nc2nccc(-c3cc4ccccc4cc3Oc3ccc(NS(=O)(=O)c4ccccc4Cl)cc3F)n2)CC1 [Compound 23, N-[4-[2-[2-[(1r,4r)(4-Aminocyclohexyl)amino]pyrimidin-4-yl]naphthyl-3-oxy]-3-fluorophenyl] 2-chlorobenzenesulfonamide]
≤ 10 nM	N[C@H]1CC[C@H](Nc2nccc(-c3cnccc3Oc3ccc(NS(=O)(=O)c4ccccc4Cl)cc3F)n2)CC1 [Compound 24, N-[4-[[3-[2-(1r,4r)[(4-aminocyclohexyl)amino]pyrimidin-4-yl]-4-pyridyl]oxy]-3-fluoro-phenyl]-2-chloro-benzenesulfonamide]
11 to 100 nM	O=S(=O)(Nc1ccc(Oc2ccncc2-c2ccnc(N[C@H]3CCCNC3)n2)cc1F)c1ccccc1Cl [Compound 25, N-[2-Fluoro-4-[[3-[2-[[(3S)-3-piperidyl]amino]pyrimidin-4-yl]-4-pyridyl]oxy]phenyl] 2-chlorobenzenesulfonamide]
≤ 10 nM	N[C@H]1CC[C@H](Nc2nccc(-c3cnccc3Oc3ccc(NS(=O)(=O)c4c(F)cccc4F)cc3F)n2)CC1 [Compound 26, N-[4-[[3-[2-[(1r,4r)(4-Aminocyclohexyl)amino]pyrimidin-4-yl]-4-pyridyl]oxy]-3-fluoro-phenyl] 2,6-difluoro-benzenesulfonamide]
11 to 100 nM	COc1ccccc1S(=O)(=O)Nc1ccc(Oc2ccncc2-c2ccnc(N[C@H]3CC[C@H](N)CC3)n2)c(F)c1 [Compound 27, N-(4-((3-(2-((1r,4r)-4-aminocyclohexyl)amino)pyrimidin-4-yl)pyridin-4-yloxy)-3-fluorophenyl) 2-methoxybenzenesulfonamide]
100 to 1000 nM	COc1ccc(Br)cc1S(=O)(=O)Nc1ccc(Oc2ccncc2-c2ccnc(N[C@H]3CC[C@H](N)CC3)n2)c(F)c1 [Compound 28, N-(4-((3-(2-((1r,4r)-4-aminocyclohexyl)amino)pyrimidin-4-yl)pyridin-4-yloxy)-3-fluorophenyl) 5-bromo-2-methoxybenzenesulfonamide]
11 to 100 nM	N[C@H]1CC[C@H](Nc2nccc(-c3cnccc3Oc3ccc(NS(=O)(=O)c4cccs4)cc3F)n2)CC1 [Compound 29]
100 to 1000 nM	N#Cc1ccc(S(=O)(=O)Nc2ccc(Oc3ccncc3-c3ccnc(N[C@H]4CC[C@H](N)CC4)n3)c(F)c2)cc1 [Compound 30, N-(4-((3-(2-((1r,4r)-4-aminocyclohexyl)amino)pyrimidin-4-yl)pyridin-4-yloxy)-3-fluorophenyl) 4-cyanobenzenesulfonamide]
11 to 100 nM	N[C@H]1CC[C@H](Nc2nccc(-c3cnccc3Oc3ccc(NS(=O)(=O)c4csc5ccccc45)cc3F)n2)CC1 [Compound 31, N-(4-((3-(2-((1r,4r)-4-aminocyclohexyl)amino)pyrimidin-4-yl)pyridin-4-yloxy)-3-fluorophenyl) benzo[b]thiophene-3-sulfonamide]
100 to 1000 nM	N[C@H]1CC[C@H](Nc2nccc(-c3cnccc3Oc3ccc(NS(=O)(=O)c4ccccc4)c(C(F)(F)F)c3)n2)CC1 [Compound 32, N-(4-((3-(2-(((1r,4r)-4-Aminocyclohexyl)amino)pyrimidin-4-yl)pyridin-4-yl)oxy)-2-(trifluoromethyl)phenyl) benzenesulfonamide]
